Experimental findings from BindingDB's records for patent US20240132473 (Shanghai Xunhe Pharmaceutical Technology Co., 2024) are described below.

In the experiment the target is T1, Interleukin-1 receptor-associated kinase 4 (Homo sapiens, UniProt Q9NWZ3).
T1 sequence (Q9NWZ3 whole entry): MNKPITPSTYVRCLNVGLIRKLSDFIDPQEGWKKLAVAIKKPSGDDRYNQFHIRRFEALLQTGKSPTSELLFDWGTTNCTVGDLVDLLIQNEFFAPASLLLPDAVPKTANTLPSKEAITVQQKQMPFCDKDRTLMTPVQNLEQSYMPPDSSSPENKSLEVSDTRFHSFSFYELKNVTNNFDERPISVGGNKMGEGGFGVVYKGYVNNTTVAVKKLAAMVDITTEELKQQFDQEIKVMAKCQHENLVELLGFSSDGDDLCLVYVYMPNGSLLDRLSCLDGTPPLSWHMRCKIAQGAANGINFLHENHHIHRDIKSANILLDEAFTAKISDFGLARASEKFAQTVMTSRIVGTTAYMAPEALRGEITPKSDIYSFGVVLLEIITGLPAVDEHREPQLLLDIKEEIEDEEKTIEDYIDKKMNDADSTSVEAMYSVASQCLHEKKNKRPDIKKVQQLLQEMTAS
The experiment can be described thus: IRAK4 Kinase Inhibitory Activity Assay. As to the method: The inhibitory activity (IC50) of the compound on IRAK4 kinase under Km ATP was detected by mobility shift assay (MSA). Ten drug concentration gradients were set (initial concentration 1 μM, 3-fold dilution, 2 duplicate wells per concentration). […] After incubation at 28° C. for a period of time, 10 μL of termination buffer was added to terminate the reaction. The conversion rate data was read with Caliper, and then the conversion rate was converted into inhibition rate data. According to the inhibition rate data of each concentration, the IC50 of half inhibitory concentration was calculated by Logit method (Table 3).

As usually defined, the IC50 is the midpoint of a concentration-inhibition curve. As for `CC(C)(O)c1cc2nn(CCS(C)(=N)=O)cc2cc1NC(=O)c1cccc(C(F)(F)F)n1` (configuration not stated) [US20240132473, Compound MY-004-102], the IC50 was 152 nM.

Regarding `COc1cc2nn(CCS(C)(=N)=O)cc2cc1NC(=O)c1cccc(C(F)(F)F)n1` (configuration not stated) [US20240132473, Compound MY-004-103], the half-inhibitory concentration (IC50) stood at 137 nM.
